Data reported in US6015823A, “4-Cyclohexylphenyl-oxazolines and their use for controlling animal pests” (Bayer Aktiengesellschaft, priority 1996, dated 2000).
Like-named read-outs stand apart in the source and are kept apart here.

Tests used:
[1] = logp: n-octanol/water partition coefficient by reversed phase HPLC; type: physicochemical; details: h2o/ch3cn, read-out: logp (logarithm to base ten of the n-octanol/water partition coefficient)
Description: *) logp: Logarithm to base ten of the n-octanol/water partition coefficient, determined by reversed phase HPLC analysis using H2 O/CH3 CN.
*^) logp: Logarithm to base ten of the noctanol/water partition
coefficient, determined by reversed phase HPLC analysis using H2

[2] = tested on: caterpillars of the owlet moth (Spodoptera frugiperda); assay: Spodoptera frugiperda test; type: in vivo; details: Spodoptera frugiperda, 168 h; active compound concentration 0.1%, after 7 days; read-out: destruction in %
Experimental: Spodoptera frugiperda test
(§1) Solvent: 7 parts by weight of dimethylformamide
(§2) Emulsifier: 1 part by weight of alkylaryl polyglycol ether
(§3) To produce a suitable preparation of active compound, I part by weight of active compound is mixed with the stated amount of solvent and the stated amount of emulsifier, and the concentrate is diluted with water to the desired concentration.
Cabbage leaves (Brassica oleracea) are treated by being dipped into the active compound preparation of the desired concentration and are infested with caterpillars of the owlet moth (Spodoptera frugiperda), while the leaves are still moist.
After the desired period of time, the destruction in % is determined. 100% means that all the caterpillars have been killed; 0% means that none of the caterpillars have been killed.

[3] = tested on: common spider mite (Tetranychus urticae); assay: Tetranychus test (OP resistant/dip treatment); type: in vivo; details: Tetranychus urticae, 312 h, read-out: destruction in %
Experimental: Tetranychus test (OP resistant/dip treatment)
Solvent: 3 parts by weight of dimethylformamide
as §2
To produce a suitable preparation of active compound, 1 part by weight of active compound is mixed with the stated amount of solvent and the stated amount of emulsifier, and the concentrate is diluted with emulsifier-containing water to the desired concentrations.
Bean plants (Phaseolus vulgaris) which are heavily infested by all stages of the common spider mite (Tetranychus urticae) are dipped into the active compound preparation of the desired concentration.
After the desired period of time, the activity in % is determined. 100% means that all the spider mites have been killed; 0% means that none of the spider mites have been killed.

[4] = tested on: mustard beetle larvae (Phaedon cochleariae); assay: Phaedon larvae test; type: in vivo; details: Phaedon cochleariae, 168 h; active compound concentration 0.01%, after 7 days; read-out: destruction in %
Experimental: as §1, §2, §3
Cabbage leaves (Brassica oleracea) are treated by being dipped into the active compound preparation of the desired concentration and are infested with mustard beetle larvae (Phaedon cochleariae), while the leaves are still moist.
After the desired period of time, the destruction in % is determined. 100% means that all the beetle larvae have been killed; 0% means that none of the beetle larvae have been killed.

[5] = A isomer (possible geometric isomer)
[6] = B isomer (possible geometric isomer)

Fc1cccc(F)c1C1=NC(c2ccc(C3CCC4(CC3)OCC(c3ccc(Br)cc3)O4)cc2)CO1 (stereo not drawn) [Example 39]
chromatographic logP [1, 5]: 5.36
chromatographic logP [1, 6]: 5.51

COc1ccc(C2COC3(CCC(c4ccc(C5COC(c6c(F)cccc6F)=N5)cc4)CC3)OC2)cc1 (stereo not drawn) [Example 44]
chromatographic logP [1]: 4.61

CC1CC(C)OC2(CCC(c3ccc(C4COC(c5c(F)cccc5F)=N4)cc3)CC2)O1 (stereo not drawn) [Example 31]
chromatographic logP [1, 5]: 4.52
chromatographic logP [1, 6]: 4.84

Fc1cccc(F)c1C1=NC(c2ccc(C3CCC4(CC3)OCCO4)cc2)CO1 (stereo not drawn) [Example 11]
chromatographic logP [1]: 3.46

O=C1CCC(c2ccc(C(CCl)NC(=O)c3c(F)cccc3F)cc2)CC1 (stereo not drawn) [2-(2,6-difluorobenzoylamido)-2-[4-(4-oxo-cyclohexyl)phenyl]-chloroethane]
chromatographic logP [1]: 2.54

Fc1cccc(F)c1C1=NC(c2ccc(C3CCC4(CC3)OCC(COc3ccccc3)O4)cc2)CO1 (stereo not drawn) [Example 41]
chromatographic logP [1, 5]: 4.73
chromatographic logP [1, 6]: 4.75

CC1CCOC2(CCC(c3ccc(C4COC(c5c(F)cccc5F)=N4)cc3)CC2)O1 (stereo not drawn) [Example 29]
chromatographic logP [1, 5]: 3.95
chromatographic logP [1, 6]: 3.98

CCCCC1COC2(CCC(c3ccc(C4COC(c5c(F)cccc5F)=N4)cc3)CC2)O1 (stereo not drawn) [Example 30]
chromatographic logP [1, 5]: 5.35
chromatographic logP [1, 6]: 5.4

CCC1(CC)COC2(CCC(c3ccc(C4COC(c5c(F)cccc5F)=N4)cc3)CC2)OC1 (stereo not drawn) [Example 38]
chromatographic logP [1]: 5.4

CC1COC2(CCC(c3ccc(C4COC(c5c(F)cccc5F)=N4)cc3)CC2)OC1 (stereo not drawn) [Example 52]
chromatographic logP [1]: 3.99

CCCCOC1(OCCCC)CCC(c2ccc(C3COC(c4c(F)cccc4F)=N3)cc2)CC1 (stereo not drawn) [Example 19]
chromatographic logP [1, 5]: 6.77
chromatographic logP [1, 6]: 6.86
mortality at 0.1 % [2]: 100%
mortality at 0.0001 % [3]: 98%

CCCCON=C1CCC(c2ccc(C3COC(c4c(F)cccc4F)=N3)cc2)CC1 (stereo not drawn) [Example 36]
chromatographic logP [1]: 4.95

CON=C1CCC(c2ccc(C3COC(c4c(F)cccc4F)=N3)cc2)CC1 (stereo not drawn) [Example 56]
chromatographic logP [1]: 3.6

CC=CC1OC2(CCC(c3ccc(C4COC(c5c(F)cccc5F)=N4)cc3)CC2)OC1C=CC (stereo not drawn) [Example 53]
chromatographic logP [1, 5]: 5.23
chromatographic logP [1, 6]: 5.37

Fc1cccc(F)c1C1=NC(c2ccc(C3CCC4(CC3)OCC(COc3ccc(Cl)cc3)O4)cc2)CO1 (stereo not drawn) [Example 46]
chromatographic logP [1, 5]: 5.1
chromatographic logP [1, 6]: 5.16

CCC(C)ON=C1CCC(c2ccc(C3COC(c4c(F)cccc4F)=N3)cc2)CC1 (stereo not drawn) [Example 9]
chromatographic logP [1]: 4.96
mortality at 0.01 % [4]: 100%
mortality at 0.1 % [2]: 100%
mortality at 0.0001 % [3]: 98%

Fc1cccc(F)c1C1=NC(c2ccc(C3CCC4(CC3)OCC(c3ccccc3Cl)O4)cc2)CO1 (stereo not drawn) [Example 24]
chromatographic logP [1]: 5.6
mortality at 0.0001 % [3]: 98%

CCCCCCCCCCCCCCCC1COC2(CCC(c3ccc(C4COC(c5c(F)cccc5F)=N4)cc3)CC2)O1 (stereo not drawn) [Example 18]
chromatographic logP [1]: 9

CCCCCCCCC1COC2(CCC(c3ccc(C4COC(c5c(F)cccc5F)=N4)cc3)CC2)O1 (stereo not drawn) [Example 34]
chromatographic logP [1, 5]: 7.19
chromatographic logP [1, 6]: 7.28

COC1(OC)CCC(c2ccc(C3COC(c4c(F)cccc4F)=N3)cc2)CC1 (stereo not drawn) [Example 8]
chromatographic logP [1]: 3.8
mortality at 0.01 % [4]: 90%

CC1COC2(CCC(c3ccc(C4COC(c5c(F)cccc5F)=N4)cc3)CC2)O1 (stereo not drawn) [Example 50]
chromatographic logP [1]: 3.89

CCCCOCC1COC2(CCC(c3ccc(C4COC(c5c(F)cccc5F)=N4)cc3)CC2)O1 (stereo not drawn) [Example 51]
chromatographic logP [1, 5]: 4.97
chromatographic logP [1, 6]: 5

CCC1COC2(CCC(c3ccc(C4COC(c5c(F)cccc5F)=N4)cc3)CC2)O1 (stereo not drawn) [Example 27]
chromatographic logP [1]: 4.43

Fc1cccc(F)c1C1=NC(c2ccc(C3CCC4(CC3)OCC(c3cccc(Cl)c3)O4)cc2)CO1 (stereo not drawn) [Example 10]
chromatographic logP [1]: 5.22
mortality at 0.01 % [4]: 100%
mortality at 0.1 % [2]: 100%
mortality at 0.0001 % [3]: 98%

Fc1cccc(F)c1C1=NC(c2ccc(C3CCC4(CC3)OCC(c3c(F)cccc3F)O4)cc2)CO1 (stereo not drawn) [Example 43]
chromatographic logP [1, 5]: 4.77
chromatographic logP [1, 6]: 4.86

Fc1cccc(F)c1C1=NC(c2ccc(C3CCC(=NOCc4ccccc4Cl)CC3)cc2)CO1 (stereo not drawn) [Example 22]
chromatographic logP [1]: 5.21
mortality at 0.0001 % [3]: 98%

CCCOc1ccc(-c2ccc(C3COC(c4c(F)cccc4F)=N3)cc2)cc1 (stereo not drawn) [(F), reference compound]
mortality at 0.0001 % [3]: 45%

Fc1cccc(F)c1C1=NC(c2ccc(C3CCC4(CC3)OCCCO4)cc2)CO1 (stereo not drawn) [Example 32]
chromatographic logP [1]: 3.47

O=C1CCC(c2ccc(C3COC(c4c(F)cccc4Cl)=N3)cc2)CC1 (stereo not drawn) [Example 57]
chromatographic logP [1]: 3.09

OC1CCC(c2ccc(C3COC(c4c(F)cccc4F)=N3)cc2)CC1 (stereo not drawn) [Example 7]
chromatographic logP [1]: 2.74

Fc1cccc(F)c1C1=NC(c2ccc(C3CCC(=NOCc4ccc(C(F)(F)F)cc4Cl)CC3)cc2)CO1 (stereo not drawn) [Example 20]
chromatographic logP [1]: 5.91
mortality at 0.01 % [4]: 100%
mortality at 0.0001 % [3]: 98%

CCCC1(C)COC2(CCC(c3ccc(C4COC(c5c(F)cccc5F)=N4)cc3)CC2)OC1 (stereo not drawn) [Example 37]
chromatographic logP [1]: 5.46

CC1(c2ccccc2)COC2(CCC(c3ccc(C4COC(c5c(F)cccc5F)=N4)cc3)CC2)OC1 (stereo not drawn) [Example 40]
chromatographic logP [1]: 5.11

ON=C1CCC(c2ccc(C3COC(c4c(F)cccc4F)=N3)cc2)CC1 (stereo not drawn) [Example 3, 2-(2,6-difluorophenyl)-4-[4-(4-oximino-cyclohexyl)phenyl]-1,3-oxazoline]
chromatographic logP [1]: 2.57

Fc1cccc(F)c1C1=NC(c2ccc(C3CCC4(CC3)OCC(Br)(c3ccc(Cl)cc3)O4)cc2)CO1 (stereo not drawn) [Example 45]
chromatographic logP [1, 5]: 5.96
chromatographic logP [1, 6]: 6.2

C=CCOCC1COC2(CCC(c3ccc(C4COC(c5c(F)cccc5F)=N4)cc3)CC2)O1 (stereo not drawn) [Example 48]
chromatographic logP [1]: 4.21

CC(C)(C)c1ccc(C2COC3(CCC(c4ccc(C5COC(c6c(F)cccc6F)=N5)cc4)CC3)O2)cc1 (stereo not drawn) [Example 23]
chromatographic logP [1]: 6.16
mortality at 0.0001 % [3]: 98%

OC1CCC(c2ccc(C3COC(c4c(F)cccc4F)=N3)cc2)CC1 (single isomer, unassigned) [Example 2, 2-(2,6-difluorophenyl)-4-[4-(4-hydroxycyclohexyl)phenyl]-1,3-oxazoline]
chromatographic logP [1]: 2.53

CC1CC(C)(C)OC2(CCC(c3ccc(C4COC(c5c(F)cccc5F)=N4)cc3)CC2)O1 (stereo not drawn) [Example 26]
chromatographic logP [1, 5]: 5.12
chromatographic logP [1, 6]: 5.19

CC(C)C1(c2ccc(Cl)cc2)COC2(CCC(c3ccc(C4COC(c5c(F)cccc5F)=N4)cc3)CC2)OC1 (stereo not drawn) [Example 47]
chromatographic logP [1]: 6.15

CCCC1COC2(CCC(c3ccc(C4COC(c5c(F)cccc5F)=N4)cc3)CC2)O1 (stereo not drawn) [Example 28]
chromatographic logP [1]: 4.52

Fc1cccc(F)c1C1=NC(c2ccc(C3CCC4(CC3)OCC(c3cccc(Cl)c3Cl)O4)cc2)CO1 (stereo not drawn) [Example 25]
chromatographic logP [1]: 6.07
mortality at 0.0001 % [3]: 98%

Fc1cccc(F)c1C1=NC(c2ccc(C3CCC(=NOCc4ccccc4)CC3)cc2)CO1 (stereo not drawn) [Example 12]
chromatographic logP [1]: 4.7
mortality at 0.0001 % [3]: 98%

CC1(C)COC2(CCC(c3ccc(C4COC(c5c(F)cccc5F)=N4)cc3)CC2)OC1 (stereo not drawn) [Example 33]
chromatographic logP [1]: 4.5

C=CCCCCC1COC2(CCC(c3ccc(C4COC(c5c(F)cccc5F)=N4)cc3)CC2)O1 (stereo not drawn) [Example 54]
chromatographic logP [1, 5]: 5.65
chromatographic logP [1, 6]: 5.7

Cc1cc(C)cc(OCC2COC3(CCC(c4ccc(C5COC(c6c(F)cccc6F)=N5)cc4)CC3)O2)c1 (stereo not drawn) [Example 42]
chromatographic logP [1, 5]: 5.44
chromatographic logP [1, 6]: 5.48

C=CCON=C1CCC(c2ccc(C3COC(c4c(F)cccc4F)=N3)cc2)CC1 (stereo not drawn) [Example 55]
chromatographic logP [1]: 4.16

Fc1cccc(F)c1C1=NC(c2ccc(C3CCC4(CC3)OCC(c3ccccc3)O4)cc2)CO1 (stereo not drawn) [Example 58]
chromatographic logP [1, 5]: 4.78
chromatographic logP [1, 6]: 4.87

Fc1cccc(F)c1C1=NC(c2ccc(C3CCC4(CC3)OCC(c3ccc(Cl)c(Cl)c3)O4)cc2)CO1 (stereo not drawn) [Example 60]
chromatographic logP [1]: 5.65

COCC1COC2(CCC(c3ccc(C4COC(c5c(F)cccc5F)=N4)cc3)CC2)O1 (stereo not drawn) [Example 49]
chromatographic logP [1, 5]: 3.57
chromatographic logP [1, 6]: 3.6

Fc1cccc(F)c1C1=NC(c2ccc(C3CCC4(CC3)OCC(c3c(F)cccc3Cl)O4)cc2)CO1 (stereo not drawn) [Example 59]
chromatographic logP [1]: 5.14
